± gives the standard deviation of the averaged measurements.
What was measured:
[1] = compound: C[C@H](CN(C)C)Oc1nc(Nc2cc3cccc(Cl)c3cn2)cnc1C#N; assay: surviving fraction relative to DMSO-only wells; higher = less growth inhibition; details: exposure time: 5 days
Procedure, shortened: (§1)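 Inhibitors were tested at 0.5, 1, 5, 10, 50, 100, 500 and 1000 nM, applied continuously for five days beginning 24 hours after log-phase tumour cells were seeded at 250–500 per well in 384-well plates. CellTiter-Glo luminescence served as the viability measure, expressed as surviving fraction against the median of DMSO-only wells. Each line, screened three times, was kept only with replicate Pearson r >0.7 and median Z' >0.3.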

BEZ-235 = compound: Cn1c(=O)n(-c2ccc(C(C)(C)C#N)cc2)c2c3cc(-c4cnc5ccccc5c4)ccc3ncc21 [BEZ-235]; assay: as above; details: exposure time: 5 days
Procedure, shortened: as §1

Test System | surviving fraction ([1]; 0.5 nM) | surviving fraction ([1]; 1 nM) | surviving fraction ([1]; 5 nM) | surviving fraction ([1]; 10 nM) | surviving fraction ([1]; 50 nM) | surviving fraction ([1]; 100 nM) | surviving fraction ([1]; 500 nM) | surviving fraction ([1]; 1000 nM) | surviving fraction (BEZ-235; 0.5 nM) | surviving fraction (BEZ-235; 1 nM) | surviving fraction (BEZ-235; 5 nM) | surviving fraction (BEZ-235; 10 nM) | surviving fraction (BEZ-235; 50 nM) | surviving fraction (BEZ-235; 100 nM) | surviving fraction (BEZ-235; 500 nM) | surviving fraction (BEZ-235; 1000 nM)
SG27 HEADNECK | 1.14 ± 0.17 | 0.995 ± 0.085 | 1.11 ± 0.12 | 0.997 ± 0.04 | 1.1 ± 0.028 | 1.03 ± 0.065 | 1.16 ± 0.062 | 1.15 ± 0.097 | 0.989 ± 0.032 | 1.06 ± 0.041 | 0.888 ± 0.063 | 1.04 ± 0.049 | 0.91 ± 0.084 | 0.908 ± 0.065 | 0.717 ± 0.061 | 0.611 ± 0.04
SG28 HEADNECK | 1.02 ± 0.033 | 1.15 ± 0.033 | 0.996 ± 0.05 | 1.09 ± 0.19 | 1.04 ± 0.069 | 1.22 ± 0.31 | 1.11 ± 0.018 | 0.959 ± 0.18 | 1.13 ± 0.053 | 1.09 ± 0.085 | 0.945 ± 0.2 | 0.965 ± 0.063 | 0.762 ± 0.053 | 0.632 ± 0.087 | 0.459 ± 0.039 | 0.342 ± 0.032
SG31 HEADNECK | 1.04 ± 0.091 | 1.08 ± 0.072 | 1.1 ± 0.28 | 1.07 ± 0.12 | 1.07 ± 0.16 | 1.07 ± 0.11 | 0.982 ± 0.14 | 0.967 ± 0.032 | 1.1 ± 0.15 | 1.138 ± 0.0095 | 0.946 ± 0.091 | 1.02 ± 0.15 | 0.602 ± 0.088 | 0.569 ± 0.042 | 0.354 ± 0.029 | 0.289 ± 0.028
SG32 HEADNECK | 1.17 ± 0.16 | 1.16 ± 0.24 | 1.06 ± 0.078 | 1.03 ± 0.1 | 1.05 ± 0.081 | 1.16 ± 0.23 | 0.748 ± 0.066 | 0.653 ± 0.11 | 1.1 ± 0.18 | 1.03 ± 0.1 | 1.42 ± 0.26 | 1.25 ± 0.13 | 0.861 ± 0.061 | 0.497 ± 0.083 | 0.255 ± 0.013 | 0.176 ± 0.026
SG43 HEADNECK | 0.863 ± 0.068 | 0.929 ± 0.058 | 0.961 ± 0.13 | 0.933 ± 0.091 | 0.729 ± 0.078 | 0.585 ± 0.08 | 0.692 ± 0.082 | 0.91 ± 0.18 | 0.984 ± 0.18 | 1.23 ± 0.35 | 0.946 ± 0.1 | 0.956 ± 0.048 | 0.763 ± 0.12 | 0.77 ± 0.11 | 0.555 ± 0.037 | 0.36 ± 0.036
SIHA CERVIX | 0.955 ± 0.041 | 0.981 ± 0.033 | 1.06 ± 0.037 | 1.05 ± 0.061 | 1.16 ± 0.014 | 1.11 ± 0.1 | 0.95 ± 0.092 | 1 ± 0.033 | 1.08 ± 0.1 | 1.14 ± 0.099 | 1.07 ± 0.044 | 1.03 ± 0.046 | 0.642 ± 0.064 | 0.485 ± 0.029 | 0.237 ± 0.008 | 0.222 ± 0.016
SJSA1 BONE | 1.49 ± 0.044 | 1.65 ± 0.083 | 1.6 ± 0.17 | 1.57 ± 0.02 | 1.63 ± 0.14 | 1.74 ± 0.039 | 1.63 ± 0.2 | 1.69 ± 0.082 | 1.07 ± 0.064 | 1.04 ± 0.05 | 1.035 ± 0.004 | 1.02 ± 0.098 | 0.803 ± 0.031 | 0.623 ± 0.013 | 0.249 ± 0.015 | 0.206 ± 0.012
SKBR3 BREAST | 1.04 ± 0.066 | 0.967 ± 0.066 | 0.881 ± 0.058 | 0.843 ± 0.063 | 1.06 ± 0.061 | 0.91 ± 0.18 | 0.667 ± 0.08 | 0.344 ± 0.019 | 1.07 ± 0.18 | 0.925 ± 0.035 | 0.88 ± 0.046 | 1.07 ± 0.018 | 0.786 ± 0.097 | 0.564 ± 0.039 | 0.141 ± 0.014 | 0.116 ± 0.0092
SNU475 LIVER | 0.989 ± 0.036 | 1.03 ± 0.019 | 1 ± 0.039 | 1.037 ± 0.005 | 1.02 ± 0.044 | 0.972 ± 0.04 | 0.968 ± 0.024 | 0.918 ± 0.024 | 1.03 ± 0.038 | 1 ± 0.07 | 0.921 ± 0.036 | 0.932 ± 0.039 | 0.423 ± 0.018 | 0.285 ± 0.0051 | 0.137 ± 0.015 | 0.148 ± 0.0081
SUM44 BREAST | 1.14 ± 0.37 | 1.16 ± 0.3 | 1.24 ± 0.33 | 1.29 ± 0.47 | 1.23 ± 0.4 | 0.918 ± 0.25 | 0.284 ± 0.056 | 0.268 ± 0.066 | 1.03 ± 0.046 | 1.02 ± 0.067 | 1.04 ± 0.025 | 0.972 ± 0.021 | 0.724 ± 0.026 | 0.422 ± 0.072 | 0.104 ± 0.0081 | 0.099 ± 0.017

— the supplement of paper PMC6045584
